Data from patent publication US20210345609A1, “AMINOCARBOXYLIC ACID CHELATING AGENT WITH ANTIFUNGAL ACTIVITY AND SYNERGISTIC USE THEREOF WITH OTHER STERILANTS” (priority 2020, published 2021).
Converted amounts (≈) assume the structure as drawn. Where two headings read alike, the source gives them in different places.

Legend:
Botrytis cinerea [1] = assay: Spore germination method on Botrytis cinerea; assay type: cell-based
pathogenic Phytophthora = assay: Hyphae growth rate method (PDA plate method); assay type: cell-based
From the text: Step 1): Setting of concentration gradients of drugs.
Step 2): Determination of EC50 values of drugs against pathogenic Phytophthora with a hyphae growth rate method (PDA plate method)

Pyricularia oryzae Guy11 = assay type: in vivo, Pyricularia oryzae Guy 11 on barley leaves; conditions: Guy11, 6 d
F. asiaticum = assay: Spore germination method, indoor toxicity on Fusarium; assay type: cell-based
Description: Experimental methods and specific experimental steps for indoor toxicology determination of Fusarium were as follows:
Step (1): Collection of spores. Five plates (5 mm) evenly distributed on the edge of a medium for Fusarium cultured at 25° C. for 3 d were taken and placed in the CMC medium. After culture under shaking at 175 rpm and 25° C. for 5 d, a filtrate was collected with three layers of sterile lens-cleaning paper. Centrifuging was carried out at 10,000 rpm for 10 min. Washing was carried out twice with sterile water (10,000 rpm, 10 min/time). A spore concentration was adjusted to 1×10^4 ml^1.
Step (2): Setting of concentration gradients of drugs. […] Drugs and spore solutions were mixed, drawn to a cell culture plate and incubated in a thermostat incubator at 25° C. for a period of time.
Step (3): Investigation results and statistical analysis. When a spore germination rate of control group was >90%, spore germination was observed and analyzed statistically.
Spore germination rate (%)=number of germinated spores/number of inspected spores×100
Corrected germination rate (%)=(germination rate for control−germination rate for treatment)/([…])×100

F. graminearum = assay: microbe, parasite or virus in culture; assay type: cell-based
F. oxysporum = assay: Spore germination method, indoor toxicity on Fusarium; assay type: cell-based
F. solani = assay: as above; assay type: cell-based
F. verticilloides = assay: as above; assay type: cell-based
Pyricularia oryzae = assay: microbe, parasite or virus in culture; assay type: cell-based
Penicillium = assay: Hyphae growth rate method (PDA plate method); assay type: cell-based
Trichoderma = assay: Hyphae growth rate method (PDA plate method); assay type: cell-based
Fusarium Fg2021 = assay: Indoor in vivo efficacy on Fusarium, wheat coleoptiles; design: species or system Fusarium Fg2021 on wheat (Yumai 35) seedlings; conditions: Fg2021, 7 d, vs control
Description: Seeds of Yumai 35 were sterilized with 0.1% mercury dichloride for 5 min, rinsed with sterile water for 3 times and immersed for 2 h. The seeds were evenly placed in plastic boxes laid with double layers of sterile filter paper with 30 seeds a box. Cultivation was carried out at 25° C. with 90% humidity and a cycle of 12 h light and 12 h dark in a light incubator for 2 d. […] 12 h later, tips of the coleoptiles were cut. Cut wounds were inoculated with 5 μL of 5×10^5 cells/mL Fg2021 spore solution respectively. Cultivation was carried out in the light incubator. 7 d later, length of disease spot was investigated.

Botrytis cinerea [2] = assay: Indoor in vivo efficacy on Botrytis cinerea, cucumber leaves; conditions: 4 d, vs control
wheat scab (Fg2021) = assay type: in vivo; conditions: wheat at flowering, vs control group
[3] = 7.5 mM sprayed on wheat coleoptiles
[4] = 15 μM sprayed on wheat coleoptiles

## O=C([O-])CN(CCN(CC(=O)[O-])CC(=O)O)CC(=O)O.[Na+].[Na+] [EDTANa2]
Botrytis cinerea [1]; spore germination
  EC50: 1.12 µg/mL
Pathogenic Phytophthora
  EC50: 19.39 µg/mL
Pyricularia oryzae Guy11; 30 mM sprayed on barley leaves
  disease spots: significantly reduced disease spots

## O=C(O)CN(CCN(CC(=O)O)CC(=O)O)CC(=O)O [EDTA, ethylenediaminetetraacetic acid]
F. asiaticum; read-out: EC50
  EC50: 8.76 µg/mL (≈ 30 µM)
F. graminearum; Fusarium graminearum
  EC50: 17.8 µg/mL (≈ 60.8 µM)
F. oxysporum; Fusarium oxysporum
  EC50: 17.7 µg/mL (≈ 60.5 µM)
F. solani; Fusarium solani
  EC50: 17.5 µg/mL (≈ 59.9 µM)
F. verticilloides
  EC50: 19 µg/mL (≈ 65.1 µM)
Pyricularia oryzae
  EC50: 9.75 µg/mL (≈ 33.4 µM)
Botrytis cinerea [1]
  EC50: 1.63 µg/mL (≈ 5.58 µM)
Penicillium
  EC50: 3.15 µg/mL (≈ 10.8 µM)
Trichoderma
  EC50: 6.12 µg/mL (≈ 20.9 µM)
Pathogenic Phytophthora; read-out: EC50
  EC50: 18.2 µg/mL (≈ 62.4 µM)
Fusarium Fg2021; [3]
  length of disease spot: significantly shorter disease spots
Botrytis cinerea [2]; 25 mM sprayed on cucumber leaves
  disease spots: significantly shorter disease spots
Wheat scab (Fg2021); 7 g ha^−1, field
  disease of wheat ears (diseased spikelets): significantly lighter disease

## O=C([O-])CN(CCN(CC(=O)[O-])CC(=O)[O-])CCN(CC(=O)[O-])CC(=O)[O-].[H+].[H+].[Na+].[Na+].[Na+] [DTPANa3]
Botrytis cinerea [1]; spore germination
  EC50: 1.88 µg/mL
Pyricularia oryzae Guy11; 10 mM sprayed on barley leaves
  disease spots: significantly reduced disease spots

## COC(=O)Nc1nc2ccccc2[nH]1 [carbendazim, reference compound]
Wheat scab (Fg2021); 140 g ha^−1, field
  disease of wheat ears (diseased spikelets): significantly lighter disease

## O=C(O)CN(CCN(CC(=O)O)CC(=O)O)CCN(CC(=O)O)CC(=O)O [DTPA, diethylenetriaminepentaacetic acid]
F. asiaticum
  EC50: 8.76 µg/mL (≈ 22.3 µM)
F. graminearum; F. graminearum, spore germination
  EC50: 16.22 µg/mL (≈ 41.2 µM)
F. oxysporum; F. oxysporum, spore germination
  EC50: 17.77 µg/mL (≈ 45.2 µM)
F. solani; F. solani, spore germination
  EC50: 17.80 µg/mL (≈ 45.3 µM)
F. verticilloides; F. verticilloides, spore germination
  EC50: 18.82 µg/mL (≈ 47.8 µM)
Pyricularia oryzae
  EC50: 9.45 µg/mL (≈ 24 µM)
Botrytis cinerea [1]; spore germination
  EC50: 1.85 µg/mL (≈ 4.7 µM)
Penicillium; hyphae growth rate
  EC50: 4.3704 µg/mL (≈ 11.1 µM)
Trichoderma; hyphae growth rate
  EC50: 7.6421 µg/mL (≈ 19.4 µM)
Pathogenic Phytophthora
  EC50: 20.35 µg/mL (≈ 51.7 µM)
Fusarium Fg2021; [4]
  length of disease spot: significantly shorter disease spots
Botrytis cinerea [2]; 10 mM sprayed on cucumber leaves
  disease spots: significantly shorter disease spots
Wheat scab (Fg2021); 7 g ha^−1, field
  disease of wheat ears (diseased spikelets): significantly lighter disease

## O=C([O-])CN(CCN(CC(=O)[O-])CC(=O)[O-])CC(=O)[O-].[Mg+2].[Mg+2] [EDTAMg2]
Botrytis cinerea [2]; 30 mM sprayed on cucumber leaves
  disease spots: significantly shorter disease spots

## O=C([O-])CN(CCN(CC(=O)[O-])CC(=O)[O-])CCN(CC(=O)[O-])CC(=O)[O-].[Na+].[Na+].[Na+].[Na+].[Na+] [DTPANa5]
Pyricularia oryzae
  EC50: 9.32 µg/mL
Fusarium Fg2021; [4]
  length of disease spot: significantly shorter disease spots

## O=C([O-])CN(CCN(CC(=O)[O-])CC(=O)O)CC(=O)[O-].[Na+].[Na+].[Na+] [EDTANa3]
Pathogenic Phytophthora
  EC50: 17.56 µg/mL

## O=C([O-])CN(CCN(CC(=O)[O-])CC(=O)[O-])CC(=O)[O-].[Na+].[Na+].[Na+].[Na+] [EDTANa4]
Pyricularia oryzae
  EC50: 9.01 µg/mL
Fusarium Fg2021; [3]
  length of disease spot: significantly shorter disease spots
